# Measured values from the supplement of paper PMC8882468.
# ± gives the standard deviation of the averaged measurements.
# Tested on: HCI-023 (organoid from a triple-negative breast cancer xenograft)
# Assay: CTG-3D luminescence at 96 h relative to day-0 seeding control (ratio to day 0); higher = more growth / less cytotoxicity; PDxO 3D drug screen, 96 h, CTG-3D normalised to day-0 seeding control.
# Details: 1 µM; days in culture: 111
row,SMILES,CTG-3D luminescence at 96 h
1,O=C(O)C1(C(=O)O)CCC1.[NH2-].[NH2-].[Pt+2] [carboplatin],0.977
2,COc1cc2c(Oc3ccc4[nH]c(C)cc4c3F)ncnc2cc1OCCCN1CCCC1 [cediranib],0.911
3,C[C@@H]1COCCN1c1cc(C2([S@](C)(=N)=O)CC2)nc(-c2cc[nH]c3nccc2-3)n1 [ceralasertib],0.756
4,Cc1cc(Nc2ncc(Cl)c(Nc3ccccc3S(=O)(=O)C(C)C)n2)c(OC(C)C)cc1C1CCNCC1 [ceritinib],0.844
5,O=C(c1ccc(F)c(F)c1Nc1ccc(I)cc1F)N1CC(O)([C@@H]2CCCCN2)C1 [cobimetinib],0.75
6,C[C@H](NC(=O)CCC(F)(F)F)C(=O)N[C@@H]1C(=O)N(CCO)c2ncccc2-c2ccccc21 [crenigacestat],0.7
7,COc1cccc2c1C(=O)c1c(O)c3c(c(O)c1C2=O)C[C@@](O)(C(=O)CO)C[C@@H]3O[C@H]1C[C@H](N)[C@H](O)[C@H](C)O1 [doxorubicin],0.426
8,C[C@]12CC[C@@H]3c4ccc(O)cc4C[C@@H](CCCCCCCCC[S+]([O-])CCCC(F)(F)C(F)(F)F)[C@H]3[C@@H]1CC[C@@H]2O (stereo partly specified) [fulvestrant],0.963
9,Nc1ccn([C@@H]2O[C@H](CO)[C@@H](O)C2(F)F)c(=O)n1 [gemcitabine],0.33

# Same assay, conditions: 1 µM; days in culture: 128
row,SMILES,CTG-3D luminescence at 96 h
1,O=C(O)C1(C(=O)O)CCC1.[NH2-].[NH2-].[Pt+2] [carboplatin],1.16 ± 0.075
2,COc1cc2c(Oc3ccc4[nH]c(C)cc4c3F)ncnc2cc1OCCCN1CCCC1 [cediranib],0.96 ± 0.19
3,C[C@@H]1COCCN1c1cc(C2([S@](C)(=N)=O)CC2)nc(-c2cc[nH]c3nccc2-3)n1 [ceralasertib],0.689 ± 0.093
4,Cc1cc(Nc2ncc(Cl)c(Nc3ccccc3S(=O)(=O)C(C)C)n2)c(OC(C)C)cc1C1CCNCC1 [ceritinib],0.92736 ± 0.00061
5,O=C(c1ccc(F)c(F)c1Nc1ccc(I)cc1F)N1CC(O)([C@@H]2CCCCN2)C1 [cobimetinib],0.769 ± 0.079
6,C[C@H](NC(=O)CCC(F)(F)F)C(=O)N[C@@H]1C(=O)N(CCO)c2ncccc2-c2ccccc21 [crenigacestat],1.05 ± 0.19
7,COc1cccc2c1C(=O)c1c(O)c3c(c(O)c1C2=O)C[C@@](O)(C(=O)CO)C[C@@H]3O[C@H]1C[C@H](N)[C@H](O)[C@H](C)O1 [doxorubicin],0.321 ± 0.021
8,C[C@]12CC[C@@H]3c4ccc(O)cc4C[C@@H](CCCCCCCCC[S+]([O-])CCCC(F)(F)C(F)(F)F)[C@H]3[C@@H]1CC[C@@H]2O (stereo partly specified) [fulvestrant],1.33 ± 0.058
9,Nc1ccn([C@@H]2O[C@H](CO)[C@@H](O)C2(F)F)c(=O)n1 [gemcitabine],0.26 ± 0.029

# Same assay, conditions: 10 µM; days in culture: 111
row,SMILES,CTG-3D luminescence at 96 h
1,O=C(O)C1(C(=O)O)CCC1.[NH2-].[NH2-].[Pt+2] [carboplatin],1.03
2,COc1cc2c(Oc3ccc4[nH]c(C)cc4c3F)ncnc2cc1OCCCN1CCCC1 [cediranib],0.0116
3,C[C@@H]1COCCN1c1cc(C2([S@](C)(=N)=O)CC2)nc(-c2cc[nH]c3nccc2-3)n1 [ceralasertib],0.365
4,Cc1cc(Nc2ncc(Cl)c(Nc3ccccc3S(=O)(=O)C(C)C)n2)c(OC(C)C)cc1C1CCNCC1 [ceritinib],0.00455
5,O=C(c1ccc(F)c(F)c1Nc1ccc(I)cc1F)N1CC(O)([C@@H]2CCCCN2)C1 [cobimetinib],0.349
6,C[C@H](NC(=O)CCC(F)(F)F)C(=O)N[C@@H]1C(=O)N(CCO)c2ncccc2-c2ccccc21 [crenigacestat],1.28
7,COc1cccc2c1C(=O)c1c(O)c3c(c(O)c1C2=O)C[C@@](O)(C(=O)CO)C[C@@H]3O[C@H]1C[C@H](N)[C@H](O)[C@H](C)O1 [doxorubicin],0.00296
8,C[C@]12CC[C@@H]3c4ccc(O)cc4C[C@@H](CCCCCCCCC[S+]([O-])CCCC(F)(F)C(F)(F)F)[C@H]3[C@@H]1CC[C@@H]2O (stereo partly specified) [fulvestrant],1.24
9,Nc1ccn([C@@H]2O[C@H](CO)[C@@H](O)C2(F)F)c(=O)n1 [gemcitabine],0.28

# Same assay, conditions: 10 µM; days in culture: 128
row,SMILES,CTG-3D luminescence at 96 h
1,O=C(O)C1(C(=O)O)CCC1.[NH2-].[NH2-].[Pt+2] [carboplatin],1.35 ± 0.19
2,COc1cc2c(Oc3ccc4[nH]c(C)cc4c3F)ncnc2cc1OCCCN1CCCC1 [cediranib],0.0129 ± 0.002
3,C[C@@H]1COCCN1c1cc(C2([S@](C)(=N)=O)CC2)nc(-c2cc[nH]c3nccc2-3)n1 [ceralasertib],0.634 ± 0.061
4,Cc1cc(Nc2ncc(Cl)c(Nc3ccccc3S(=O)(=O)C(C)C)n2)c(OC(C)C)cc1C1CCNCC1 [ceritinib],0.00417 ± 0.0011
5,O=C(c1ccc(F)c(F)c1Nc1ccc(I)cc1F)N1CC(O)([C@@H]2CCCCN2)C1 [cobimetinib],0.338 ± 0.099
6,C[C@H](NC(=O)CCC(F)(F)F)C(=O)N[C@@H]1C(=O)N(CCO)c2ncccc2-c2ccccc21 [crenigacestat],1.52 ± 0.16
7,COc1cccc2c1C(=O)c1c(O)c3c(c(O)c1C2=O)C[C@@](O)(C(=O)CO)C[C@@H]3O[C@H]1C[C@H](N)[C@H](O)[C@H](C)O1 [doxorubicin],0.00812 ± 0.00098
8,C[C@]12CC[C@@H]3c4ccc(O)cc4C[C@@H](CCCCCCCCC[S+]([O-])CCCC(F)(F)C(F)(F)F)[C@H]3[C@@H]1CC[C@@H]2O (stereo partly specified) [fulvestrant],1.56 ± 0.41
9,Nc1ccn([C@@H]2O[C@H](CO)[C@@H](O)C2(F)F)c(=O)n1 [gemcitabine],0.399 ± 0.094
